# Measured values published in patent publication US20250319059A1, “Method for Treating Inflammatory Dysfunction of the Oral Mucosa” (VIVASOR, INC., priority 2022, published 2025).
# Key:
# [1] = Preliminary safety study of oral topical application of RTX in cats with gingival inflammation; type: in vivo, cat
# Text: This example provides safety data related to oral topical application of RTX. The primary objective of this study was to determine the initial tolerance of RTX when it is topically administered under anesthesia to the oral cavity of cats as a single treatment.
# Four cats were enrolled in this study. Each cat presented with mild to moderate gingival inflammation. The cats were allocated to two treatment groups according to severity of gingival inflammation. Group 1 cats, those with mild cases of gingivitis, were dosed on study Day 0 with a diluted RTX solution (12.5 μg/mL) applied topically to the maxillary and mandibular gingival tissue (buccal and palatal/lingual gingiva). Group 2 cats, those with current or recent historical moderate gingivitis, underwent the same treatment regimen on study Day 0 with the addition of application to the palatal and sublingual tissue.
# Total dose of RTX tested per cat (diluted with sterile saline for a total volume of 2 mL) was: 17.5 μg (Group 1 cat), 23.75 μg (Group 1 cat), or 25 μg (Group 2 cats) RTX. One cat (pudding) received 17.5 μg RTX, one cat (Clank) received 23.75 μg RTX, and two cats (Forbes and Bianca) received 25 μg RTX. A single application of RTX was topically applied inside the mouth of each cat. The RTX was applied to the entire mouth.
# Cats were anesthetized during treatment administration and for 30 minutes post-dose. Diphenhydramine (2 mg/kg, IM) was given as an anesthetic pre-treatment a minimum of 30 minutes prior to dosing. Induction was then performed using a combination of medetomidine 0.03 mg/kg, ketamine 5 mg/kg and butorphanol 0.2 mg/kg; dose volume 0.1 mL/kg, IM. Following application of a lidocaine hydrochloride spray to the larynx, intubation was performed and anesthesia was maintained using an isofluraneoxygen mixture. Standard anesthetic monitoring of vital signs was performed approximately every 5-10 minutes following dosing and precautions were taken to avoid low body temperature throughout the procedure. Cats remained under anesthesia for 30 minutes following dosing for additional monitoring. Upon removal from anesthetic, reversal drug atipamezole (0.2 mg/kg, IM) was administered.
# To assess RTX tolerance, adverse event monitoring was performed using the following parameters: measurement of vital signs during anesthesia; physical examinations performed 0.25, 0.5, 1, 2, 3 and 4 hours following recovery from anesthesia (i.e. removal of endotracheal tube) as well as 1, 3 and 7 days post-dose in both the morning (AM) and afternoon (PM); twice daily clinical observations; daily food consumption measurement.
# [2] = system: oral pain associated with Feline Chronic Gingivostomatitis (FCGS); assay: Veterinarian Specific Outcome Measures (VSOM) in client-owned cats after oral topical RTX; type: in vivo, cat; conditions: for treatment success rate (VSOM): Day 28 vs Day 0, success = reduction of at least 2 in total VSOM score
# Text: (§1) Characterize the required dose of RTX applied topically to the oral mucosa for the control of pain associated with Feline Chronic Gingivostomatitis (FCGS).
# • Cat less than 12 months of age. • Cat's body weight less than 2 kg. • Cat unlikely to survive a 30-min anesthesia or sedation procedure. • Cat was unlikely to survive 4 weeks due to health issues other than oral pain. • Cat was unavailable for the entire study duration or was felt to be unsuitable by the Investigator for another reason. • Cat was participating in another study • Cat was pregnant or lactating. • Cat underwent an oral surgical procedure within 30 days prior to screening. • Cat received cannabinoid agonists such as cannabidiol (CBD) or anandamide within 28 days of starting the study. • Cat received oral corticosteroids within 1 week of starting the study, or injectable corticosteroids within 6 weeks of starting the study, and/or required medication or supplements during the study that may have interfered with the objective of the study.
# Twenty-eight cats, each weighing over 2 kg and over 12 months of age, were enrolled in this study. There was no apparent trend in the ages of cats enrolled in the study. Enrolled cats were physically examined (their physical exam findings such as general appearance, ears/eyes/mouth, abdominal/gastrointestinal, musculoskeletal, neurological urogenital, lymphatic etc. . . . were recorded). Their weight and vital signs were recorded as well.
# Veterinarian Specific Outcome Measures (VSOM)—Qualitative assessment of common stomatitis signalment was carried out prior to the beginning of treatment and on day 7, 14, and 28 (at the conclusion of treatment). Cats were assessed for drooling, pain while eating, pain at manipulation and swelling of the oral tissue. Each clinical sign was graded from 1 to 5 (1=no problem; 5=Impossible).
# Treatment success was defined as “a reduction of at least 2 in total VSOM score at Day 28 compared to VSOM score at Day 0. A decrease of less than 2, no change, or an increase in total score was defined as treatment failure. Cats presenting an increase in any individual VSOM were considered a treatment failure regardless of total VSOM score. […] The results of each cohort were not compared statistically; only descriptive statistics were generated due to the small number of cats per cohort and lack of randomization. However, there was no evidence of a relationship between treatment success and dose.
# (§2) Each animal was randomly assigned to one of three groups. Ten cats (group 1) were treated with 6.25 μg RTX (total) diluted with sterile saline for a total volume of 2 mL. Nine cats (group 2) were treated with 12.5 μg RTX (total) diluted with sterile saline for a total volume of 2 mL. Nine cats (group 3) were treated with 25 μg RTX (total) diluted with sterile saline for a total volume of 2 mL.
# RTX solution was applied using a clean cotton tip applicator directly to the visible lesions and adjacent tissue. The non-target dosing areas (caudal mouth/pharynx) were protected using a 4×4 gauze. Any targeted area was dried with sterile gauze or using the air-water syringe system. The saturated applicator for was gently pressed along the targeted areas for 10 seconds. Two to three coats per lesion were applied using the same cotton tip applicator. The area was allowed to dry for a few seconds before moving to the next lesion by exposing the area to the air or by gently using the air-water syringe system. […]
# [3] = system: oral inflammation, Feline Chronic Gingivostomatitis (FCGS); assay: Stomatitis Disease Activity Index (SDAI) in client-owned cats after oral topical RTX; type: in vivo, cat; conditions: for treatment success (SDAI): success = 20% reduction in Day 28 SDAI vs Day 0 (post-hoc)
# Method: as §1
# Stomatitis Disease Activity Index (SDAI)—This semi-quantitative assessment of oral inflammation was carried out prior to the beginning of treatment (day 0) and at day 28 (at the conclusion of treatment). Cats were assessed by owner for cat's interest in food and ability to eat, perceived comfort, grooming behavior, and activity levels. Each assessment was graded from 0 to 3 (0=no problem; 3=severe problems).
# The average of the scores in Table 1 (total score divided by 4) were entered in the “owner evaluation” box on the initial SDAI (Stomatitis Disease Activity Index) tabulation sheet of Table 2. The rest of the questions on SDAI survey were completed by the veterinarian prior to the beginning of treatment (day 0) and at day 28 (at the conclusion of treatment). Each assessment was graded from 0 to 3 (0=no problem; 3=severe problems) as follows:
# Treatment success using the SDAI metric was defined post-hoc as a 20% reduction in the Day 28 SDAI compared to Day 0. Based on this definition, the percentage success was 100.0%, 80.0% and 44.4% for Cohorts 1, 2, and 3 respectively. The discrepancy in the success rate of Cohort 3 using the two metrics may be due to a higher baseline SDAI score.
# as §2
# RTX solution was applied using a clean cotton tip applicator directly to the visible lesions and adjacent tissue. The non-target dosing areas (caudal mouth/pharynx) were protected using a 4×4 gauze. Any targeted area was dried with sterile gauze or using the air-water syringe system. The saturated applicator for was gently pressed along the targeted areas for 10 seconds. Two to three coats per lesion were applied using the same cotton tip applicator. The area was allowed to dry for a few seconds before moving to the next lesion by exposing the area to the air or by gently using the air-water syringe system. When possible, and in absence of active bleeding due to manipulation, the RTX solution was allowed to drip into the gingival sulcus. If a target area was actively bleeding, an attempt to decrease or stop the bleeding was made before the RTX application.
# [4] = Safety variables of the FCGS effectiveness study (mortality, adverse events, clinical observations, body weight, ability to eat); type: in vivo, cat
# Text: Mortality—No mortality, whether by natural death or euthanasia, occurred on this study.
# An adverse event (AE) is defined as any undesirable event, expected or not, occurring to a study animal during the study, regardless of whether the event was considered to have a causal relation to a study treatment. Adverse events were reported at scheduled times during the study from Day 0 to the last day of the study. Certain adverse events, defined as serious adverse events, were reported in an expedited fashion to allow for possible study protocol modifications. A Serious Adverse Event (SAE) is defined as any medical occurrence that results in hospitalization longer than 24 hours or results in significant disability or morbidity or is life threatening or results in death.
# Severity, causality and outcome of adverse events were recorded. Causality is a determination of whether there was a reasonable possibility that the drug may have caused or contributed to an AE. This relationship was described as “unlikely”, “possible”, “probable”, “definite”, or “unknown.”
# On Day 0, starting once the RTX was applied to all oral lesions (time 0), clinical observations were carried out by the veterinarian at 10, 30, 45, 60 (±5 minutes), as well as at 2 hours (±10 minutes) and 4 hours (±15 minutes), post-treatment administration. Cats were observed past 4 hours post-treatment administration, as necessary or until resolution of abnormal observations.
# Cats were weighed on days 0, 7, 14, and 28. Normal body weights were reported for 24 of the 28 cats. Two cats (one in Cohort 1 and one in Cohort 3) had abnormal (low) weight on day 0, but normal weight by day 28.
# Cats' ability to eat was assessed on days 0, 7, 14, and 28. The majority of the cats' ability to eat improved throughout the study. On day 28, no differences in ability to eat were detected between cohorts.
# TRPV1 receptor = TRPV1 receptor (Homo sapiens, UniProt Q8NER1); conditions: cited from earlier work
# TRPV1 receptor, sequence (Q8NER1 whole entry): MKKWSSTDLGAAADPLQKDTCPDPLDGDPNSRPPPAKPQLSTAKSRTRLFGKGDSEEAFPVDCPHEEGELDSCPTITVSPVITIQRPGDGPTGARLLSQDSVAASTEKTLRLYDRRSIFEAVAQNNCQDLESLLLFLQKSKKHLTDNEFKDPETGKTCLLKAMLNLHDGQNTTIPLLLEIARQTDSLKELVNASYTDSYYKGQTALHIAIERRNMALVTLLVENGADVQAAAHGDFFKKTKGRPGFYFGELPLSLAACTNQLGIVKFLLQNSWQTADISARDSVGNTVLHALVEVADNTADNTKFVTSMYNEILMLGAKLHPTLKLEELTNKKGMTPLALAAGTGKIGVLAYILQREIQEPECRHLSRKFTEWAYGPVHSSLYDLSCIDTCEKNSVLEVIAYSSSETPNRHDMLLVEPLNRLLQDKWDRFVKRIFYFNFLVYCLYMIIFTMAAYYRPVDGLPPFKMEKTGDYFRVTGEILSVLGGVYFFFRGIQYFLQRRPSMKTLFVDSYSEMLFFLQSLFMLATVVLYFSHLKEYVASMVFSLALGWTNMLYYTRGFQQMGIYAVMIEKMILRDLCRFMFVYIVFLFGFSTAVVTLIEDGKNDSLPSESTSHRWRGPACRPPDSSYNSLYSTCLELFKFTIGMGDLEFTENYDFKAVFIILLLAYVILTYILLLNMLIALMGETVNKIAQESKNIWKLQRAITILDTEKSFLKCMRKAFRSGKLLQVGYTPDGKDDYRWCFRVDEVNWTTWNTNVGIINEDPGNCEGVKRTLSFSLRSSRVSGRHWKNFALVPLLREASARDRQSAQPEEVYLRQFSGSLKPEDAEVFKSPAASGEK
smiles,measurement,setting,value
"C=C(C)[C@]12C[C@@H](C)[C@@]34O[C@](Cc5ccccc5)(O[C@@H]1[C@@H]3C=C(COC(=O)Cc1ccc(O)c(OC)c1)C[C@]1(O)C(=O)C(C)=C[C@@H]41)O2 [RTX, resiniferatoxin]",time to resolution of mild increases in severity of gingivitis,"[1]; 2 cats, without intervention",≤ 3 days post-dose
same,food consumption,[1]; 8 days following RTX administration,returned to normal by day seven
same,body weight,[1]; day 8 vs before administration,by day 8 the weight was back to normal
same,tolerability,"[1]; single topical oral application 17.5-25 μg RTX (12.5 μg/mL), 4 cats, followed 8 days",well tolerated with only mild and transient adverse events
same,control of pain and inflammation,"[2]; 6.25 μg RTX, 28 days",effective in controlling pain and inflammation for 28 days
same,treatment success rate (VSOM),"[2]; Cohort 1, 6.25 μg RTX topical oral",90.0%
same,treatment success rate (VSOM),"[2]; Cohort 2, 12.5 μg RTX topical oral",80.0%
same,treatment success (VSOM) on Day 14,"[2]; Cohort 2, 12.5 μg RTX, Day 14",all cats in Cohort 2 were a success
same,treatment success rate (VSOM),"[2]; Cohort 3, 25 μg RTX topical oral",88.9%
same,treatment success (SDAI),"[3]; Cohort 1, 6.25 μg RTX",100.0%
same,treatment success (SDAI),"[3]; Cohort 2, 12.5 μg RTX",80.0%
same,treatment success (SDAI),"[3]; Cohort 3, 25 μg RTX",44.4%
same,percent improvement in SDAI,[3]; day 0 to day 28,about 60%
same,severity of adverse events,[4]; 6.25-25 μg RTX topical oral,Most of the AE were graded as mild
same,serious adverse events (SAE) during in-life,"[4]; 28 cats, 6.25-25 μg RTX topical oral",One
same,mortality,"[4]; 28 cats, 6.25-25 μg RTX topical oral, 28 days",No mortality
same,signs of systemic RTX exposure,[4]; application on inflamed oral mucosa,did not exhibit signs of systemic RTX exposure
same,ability to eat,"[4]; assessed days 0, 7, 14, 28, all cohorts",most of the cats in all cohorts that completed the study had an improvement in the ability to eat
same,cats with normal body weights,"[4]; weighed days 0, 7, 14, 28",24 of the 28
same,"time to resolution of clinical signs (panting, hypersalivation, tachycardia, restlessness) post-treatment",[4]; without medical intervention,≤ 3 h
same,potency relative to capsaicin,TRPV1 receptor; TRPV1 receptor agonist,"1000-10,000 times"
same,Scoville scale,TRPV1 receptor,16 billion
